GI50 data for 18 compounds are collected here from patent US20250388575A1, “HETEROBIFUNCTIONAL COMPOUNDS AND METHODS OF TREATING DISEASE” (Halda Therapeutics OpCo, Inc., priority 2022, published 2025).

For assay [1], the system named is T-Rex 293 cell line SC3 cells having increased expression of androgen receptor protein. The assay is described as follows: Cellular growth inhibition, T-Rex 293 SC3 cells with increased androgen receptor expression (doxycycline), CellTiter-Glo. In kind it is cell-based. As to the method:
(§1) The following types of cells were prepared for this experiment: (i) a T-Rex 293 cell line having increased expression of androgen receptor protein due to exposure to doxycycline and (ii) a T-Rex 293 cell line lacking increased expression of androgen receptor protein. Ability of the test compounds to inhibit proliferation of the foregoing cell types was evaluated according to the procedures set forth below.
(§2) The doxycycline-inducible androgen receptor protein expressing cell line was established using the following protocol: T-Rex 293 cells were purchased from Invitrogen (Cat #R71007) and transfected using Lipofectamine 2000 with the wild-type androgen receptor protein sequence cloned into the pcDNA4/TO vector. Transfected cells were selected using 400 μg/mL Zeocin (Invitrogen Cat #R25001). Following selection, single clones were raised and maintained in Dulbecco's Modified Eagle Medium (DMEM) supplemented with 10% w/w Tetracycline-free fetal bovine serum (FBS) and 250 μg/mL Zeocin. Clones were analyzed for expression of androgen receptor protein in the presence and absence of 10 ng/ml doxycycline (Sigma Cat #D9891), and a single doxycycline-inducible clone (hereinafter “SC3”) was selected for use in downstream assays.
(§3) The SC3 cells were seeded on poly-D-lysine coated, black clear-bottom 384-well plates at 2500/well, in 25 μL Phenol Red Free Dulbecco's Modified Eagle Medium (DMEM) supplemented with 10% w/w charcoal-dextran treated fetal bovine serum (FBS) and 1% w/w pen-strep, with or without 10 ng/mL doxycycline. Pen-Strep is a commercially available mixture of penicillin G and streptomycin, which is used in mammalian cell culture media to prevent bacterial contamination. Phenol Red Free Dulbecco's Modified Eagle Medium (DMEM) supplemented with 10% w/w charcoal-dextran treated fetal bovine serum (FBS) and 1% w/w pen-strep, with or without 10 ng/mL doxycycline is herein referred to as Treatment Medium. Following seeding of cells in the plates, the plates were spun at 300×g for 30 seconds, then equilibrated to room temperature for 30 minutes, and then deposited in a humidified tissue culture incubator maintained at 37° C. with 5% CO2.
(§4) At 24 hours after seeding of the cells, dilutions of test compound were prepared in DMSO and dissolved in Treatment Medium, to achieve a final DMSO concentration of 0.5% w/w, thereby providing the Test Compound Solution. A 25 μL aliquot of the Test Compound Solution was added to cells in the well plates. An equal volume of a solution containing DMSO and Treatment Medium was used as a negative control. Following treatment of cells with Test Compound Solution or said equal volume of a solution containing DMSO and Treatment Medium, the plates were spun at 300×g for 30 seconds, and then left in an incubator for 72 hours.
(§5) At the end of the treatment duration, cell viability was quantified with CellTiter-Glo 2.0 reagent (Promega Cat #G9243). For this purpose, plates were equilibrated to room temperature for 30 minutes, and then 25 μL of CellTiter-Glo 2.0 reagent was added to cells in the plate wells. Plates were then agitated on a shaker for two minutes at 500 rpm and subsequently incubated at room temperature for 10 minutes. Following incubation, the plates were spun at 3000×g for 30 seconds, then sealed with an optical adhesive cover, and luminescence readings were measured with an EnVision Plate Reader.
(§6) Data was normalized using zero luminescence for baseline. A four-parameter non-linear regression curve fit was applied to dose-response data in GraphPad Prism data analysis software to determine the half-maximal growth inhibitory concentration (GI50) for each test compound.
In general terms: Cellular ATP, detected with luciferase, serves as a proxy for viable cell number.

Assay [2] has as its system T-Rex 293 cell line SC3 cells lacking increased expression of androgen receptor protein. Description: Cellular growth inhibition, T-Rex 293 SC3 cells lacking increased androgen receptor expression (no doxycycline), CellTiter-Glo. Type of assay: cell-based. How it is done:
as §1, §2, §3, §4, §5, §6

The test system of assay [3] is VCaP cells. Description: Cellular growth inhibition assay for VCaP cells, CellTiter-Glo. In kind it is cell-based, human. How it is done:
VCaP cells were purchased from American Type Cell Culture (ATCC Cat #CRL2876) and then seeded on poly-D-lysine coated, black clear-bottom 384-well plates at 5000/well in 25 μL Dulbecco's Modified Eagle Medium (DMEM) supplemented with 10% w/w Fetal bovine serum (FBS) and 1% w/w Pen-Strep. Pen-Strep is a commercially available mixture of penicillin G and streptomycin, which is used in mammalian cell culture media to prevent bacterial contamination. Dulbecco's Modified Eagle Medium (DMEM) supplemented with 10% w/w fetal bovine serum (FBS) and 1% w/w Pen-Strep is herein referred to as Treatment Medium. Following seeding of cells in the plates, the plates were spun at 300×g for 30 seconds, then equilibrated to room temperature for 30 minutes, and then deposited in a humidified tissue culture incubator maintained at 37° C. with 5% CO2.
as §4, §5, §6

The mark [4] stands for this setting: T-Rex 293 SC3 cells with increased androgen receptor expression (exposed to 10 ng/mL doxycycline), 72 hours, CellTiter-Glo, read-out: GI50.
Where [5] appears, read: T-Rex 293 SC3 cells lacking increased androgen receptor expression (not exposed to doxycycline), 72 hours, CellTiter-Glo, read-out: GI50.
[6] abbreviates: Homo sapiens, VCaP cells, 72 hours, CellTiter-Glo, read-out: GI50.
Setting [7] is: VCaP cells, 72 hours, CellTiter-Glo, read-out: GI50.

Molecules are shown by their SMILES. Like-named read-outs stand apart in the source and are kept apart here. Bounds are passed on as bounds.

In general, GI50 refers to the concentration that inhibits growth by half. In the case of `CCS(=O)(=O)Nc1ccc(Oc2cccc(OCCOCCOCCOCCOCCOCCOCCOC3CCN(c4ccc(C(=O)N[C@H]5CC[C@H](Oc6ccc(C#N)c(Cl)c6)CC5)nn4)CC3)c2)c(-c2cn(C)c(=O)c3[nH]ccc23)c1` [I-4, N-[4-(3-chloro-4-cyano-phenoxy)cyclohexyl]-6-[4-[2-[2-[2-[2-[2-[2-[2-[3-[4-(ethylsulfonylamino)-2-(6-methyl-7-oxo-1H-pyrrolo[2,3-c]pyridin-4-yl)phenoxy]phenoxy]ethoxy]ethoxy]ethoxy]ethoxy]ethoxy]ethoxy]ethoxy]-1-piperidyl]pyridazine-3-carboxamide], the 50% growth inhibitory concentration (GI50) in assay [1] (setting [4]) is < 500 nM; in assay [2] (setting [5]), 1500 to 3000 nM.

On to `CCS(=O)(=O)Nc1ccc(Oc2cccc(OCCOC3CCN(c4ncc(C(=O)N[C@H]5CC[C@H](Oc6ccc(C#N)c(Cl)c6)CC5)cn4)CC3)c2)c(-c2cn(C)c(=O)c3[nH]ccc23)c1` [I-5, N-[4-(3-chloro-4-cyano-phenoxy)cyclohexyl]-2-[4-[2-[3-[4-(ethylsulfonylamino)-2-(6-methyl-7-oxo-1H-pyrrolo[2,3-c]pyridin-4-yl)phenoxy]phenoxy]ethoxy]-1-piperidyl]pyrimidine-5-carboxamide], for which the concentration for 50% growth inhibition (GI50) in assay [1] (setting [4]) was < 500 nM; in assay [2] (setting [5]) it was 500 to 1500 nM; in assay [3] (setting [6]) it was < 500 nM.

Take `CCS(=O)(=O)Nc1ccc(Oc2cccc(CCOC3CCN(c4ccc(C(=O)N[C@H]5CC[C@H](Oc6ccc(C#N)c(Cl)c6)CC5)nn4)CC3)c2F)c(-c2cn(C)c(=O)c3[nH]ccc23)c1` [I-11]: the GI50 in assay [1] (setting [4]), in assay [2] (setting [5]) and in assay [3] (setting [6]) was < 500 nM in each case.

Take `CCS(=O)(=O)Nc1ccc(Oc2cccc(CCCN3CCN(c4ccc(C(=O)N[C@H]5CC[C@H](Oc6ccc(C#N)c(Cl)c6)CC5)nn4)CC3)c2F)c(-c2cn(C)c(=O)c3[nH]ccc23)c1` [I-13]: the GI50 in assay [1] (setting [4]), in assay [2] (setting [5]) and in assay [3] (setting [6]) was < 500 nM in each case.

For the compound `CCS(=O)(=O)Nc1ccc(Oc2cccc(OCCN3CCN(c4ccc(C(=O)N[C@H]5CC[C@H](Oc6ccc(C#N)c(Cl)c6)CC5)nn4)CC3)c2F)c(-c2cn(C)c(=O)c3[nH]ccc23)c1` [I-14], the GI50 in assay [1] (setting [4]), in assay [2] (setting [5]) and in assay [3] (setting [6]) was < 500 nM each time.

In the case of `CCS(=O)(=O)Nc1ccc(Oc2cccc(OCCOC3CCN(c4ccc(C(=O)N[C@H]5CC[C@H](Oc6ccc(C#N)c(Cl)c6)CC5)nn4)CC3)c2F)c(-c2cn(C)c(=O)c3[nH]ccc23)c1` [I-16], the GI50 in assay [1] (setting [4]), in assay [2] (setting [5]) and in assay [3] (setting [6]) was < 500 nM in each case.

Regarding `Cn1cc(-c2cc(NS(=O)(=O)CC(F)(F)F)ccc2Oc2cccc(OCCOC3CCN(c4ccc(C(=O)N[C@H]5CC[C@H](Oc6ccc(C#N)c(Cl)c6)CC5)nn4)CC3)c2F)c2cc[nH]c2c1=O` [I-17], the GI50 in assay [1] (setting [4]), in assay [2] (setting [5]) and in assay [3] (setting [6]) was < 500 nM each time.

`CCS(=O)(=O)Nc1ccc(Oc2cccc(OCCCC3CCN(c4ccc(C(=O)NC5CCC(Oc6ccc(C#N)c(Cl)c6)CC5)nn4)CC3)c2F)c(-c2cn(C)c(=O)c3[nH]ccc23)c1` (stereo not drawn) [I-18]: the GI50 in assay [1] (setting [4]), in assay [2] (setting [5]) and in assay [3] (setting [6]) was < 500 nM throughout.

For `CCS(=O)(=O)Cc1ccc(Oc2cccc(OCCOC3CCN(c4ccc(C(=O)N[C@H]5CC[C@H](Oc6ccc(C#N)c(Cl)c6)CC5)nn4)CC3)c2F)c(-c2cn(C)c(=O)c3[nH]ccc23)c1` [I-22], the GI50 in assay [1] (setting [4]), in assay [2] (setting [5]) and in assay [3] (setting [6]) was < 500 nM each time.

As for `CCS(=O)(=O)c1ccc(Oc2cccc(OCCOC3CCN(c4ccc(C(=O)N[C@H]5CC[C@H](Oc6ccc(C#N)c(Cl)c6)CC5)nn4)CC3)c2F)c(-c2cn(C)c(=O)c3[nH]ccc23)c1` [I-23], the GI50 in assay [1] (setting [4]), in assay [2] (setting [5]) and in assay [3] (setting [6]) was < 500 nM throughout.

Turning to `Cn1cc(-c2cc(NS(=O)(=O)C(F)(F)F)ccc2Oc2cccc(OCCOC3CCN(c4ccc(C(=O)N[C@H]5CC[C@H](Oc6ccc(C#N)c(Cl)c6)CC5)nn4)CC3)c2F)c2cc[nH]c2c1=O` [I-24], the GI50 in assay [1] (setting [4]) is 500 to 1500 nM; in assay [2] (setting [5]) it was > 3000 nM; in assay [3] (setting [6]), 1500 to 3000 nM.

As for `CCS(=O)(=O)c1ccc(Oc2cccc(CCCOC3CCN(c4ccc(C(=O)N[C@H]5CC[C@H](Oc6ccc(C#N)c(Cl)c6)CC5)nn4)CC3)c2F)c(-c2cn(C)c(=O)c3[nH]ccc23)c1` [I-27], the GI50 in assay [1] (setting [4]), in assay [2] (setting [5]) and in assay [3] (setting [6]) was < 500 nM each time.

On to `CCS(=O)(=O)Nc1ccc(Oc2cccc(OCCOC3CCN(c4cnc(C(=O)N[C@H]5CC[C@H](Oc6ccc(C#N)c(Cl)c6)CC5)cn4)CC3)c2F)c(-c2cn(C)c(=O)c3[nH]ccc23)c1` [I-31], for which the GI50 in assay [1] (setting [4]), in assay [2] (setting [5]) and in assay [3] (setting [6]) was < 500 nM throughout.

On to `CCS(=O)(=O)c1ccc(Oc2cccc(OCCOC3CCN(c4cnc(C(=O)N[C@H]5CC[C@H](Oc6ccc(C#N)c(Cl)c6)CC5)cn4)CC3)c2F)c(-c2cn(C)c(=O)c3[nH]ccc23)c1` [I-32], for which the GI50 in assay [1] (setting [4]), in assay [2] (setting [5]) and in assay [3] (setting [6]) was < 500 nM each time.

Take `CCS(=O)(=O)Nc1ccc(Oc2ccc(OCCOC3CCN(c4ccc(C(=O)N[C@H]5CC[C@H](Oc6ccc(C#N)c(Cl)c6)CC5)nn4)CC3)cc2)c(-c2cn(C)c(=O)c3[nH]ccc23)c1` [I-34]: the GI50 in assay [1] (setting [4]), in assay [2] (setting [5]) and in assay [3] (setting [7]) was < 500 nM throughout.

As for `CCS(=O)(=O)Nc1ccc(Oc2cccc(CCCOC3CCN(c4ccc(C(=O)N[C@H]5CC[C@H](Oc6ccc(C#N)c(Cl)c6)CC5)nn4)CC3)c2F)c(-c2cn(C)c(=O)c3[nH]ccc23)c1` [I-37, N-[4-(3-chloro-4-cyano-phenoxy)cyclohexyl]-6-[4-[3-[3-[4-(ethylsulfonylamino)-2-(6-methyl-7-oxo-1H-pyrrolo[2,3-c]pyridin-4-yl)phenoxy]-2-fluoro-phenyl]propoxy]-1-piperidyl]pyridazine-3-carboxamide], the GI50 in assay [1] (72 h) is < 500 nM; in assay [2] (72 h) it was < 500 nM; in assay [3] (Homo sapiens, VCaP, 72 h), < 500 nM.

Turning to `CCS(=O)(=O)Nc1ccc(Oc2cccc(CCC3CCN(c4ccc(C(=O)N[C@H]5CC[C@H](Oc6ccc(C#N)c(Cl)c6)CC5)nn4)CC3)c2)c(-c2cn(C)c(=O)c3[nH]ccc23)c1` [I-39], the concentration for 50% growth inhibition (GI50) is < 500 nM in assay [1] (setting [4]), > 3000 nM in assay [2] (setting [5]) and < 500 nM in assay [3] (setting [6]).

As for `Cn1cc(-c2cc(C(C)(C)O)ccc2Oc2ccc(CCCCC3CCN(c4ccc(C(=O)N[C@H]5CC[C@H](Oc6ccc(C#N)c(Cl)c6)CC5)nn4)CC3)cc2)c2cc[nH]c2c1=O` [I-125], the GI50 in assay [3] (setting [7]) is < 500 nM.
